US20090156577A1, “7-AMINO ALKYLIDENYL-HETEROCYCLIC QUINOLONES AND NAPHTHYRIDONES” (priority 2004, published 2009)
In brackets after ≈: the same amount, converted by molar mass. Where two headings read alike, the source gives them in different places.

Test system: pathogenic bacteria
Test: MIC by microdilution broth method (NCCLS M7-A4), in vitro antibacterial activity
Type: cell-based
Method in brief: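 Broth microdilution per NCCLS M7-A4: two-fold serial dilutions in cation-adjusted Mueller-Hinton broth, inoculum about 5×10^4 CFU/well. Trays incubated 16–20 h at 35 °C. MIC read by comparing growth against no-compound growth controls.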

[1] = Staphylococcus aureus, Organism A: Staphylococcus aureus OC4172, read-out: MIC
[2] = Streptococcus pneumoniae, ATCC49619, Organism E: Streptococcus pneumoniae ATCC 49619, read-out: MIC
[3] = Streptococcus pneumoniae, Organism B: fluoroquinolone-resistant clinical isolate of Streptococcus pneumoniae (QRDR amino acid substitutions)
[4] = Streptococcus pneumoniae, Organism C: fluoroquinolone-resistant clinical isolate of Streptococcus pneumoniae (QRDR amino acid substitutions)
[5] = Streptococcus pneumoniae, Organism D: fluoroquinolone-resistant clinical isolate of Streptococcus pneumoniae (QRDR amino acid substitutions)

Row | Compound | MIC [1] [µg/mL] | MIC [2] [µg/mL] | MIC [3] [µg/mL] | MIC [4] [µg/mL] | MIC [5] [µg/mL]
1 | COc1c(N2CCC/C(=C(\Cl)CN)C2)c(F)cc2c(=O)c(C(=O)O)cn([C@@H]3C[C@@H]3F)c12 [Compound 407, (E)-7-[3-(2-Amino-1-chloro-ethylidene)-piperidin-1-yl]-6-fluoro-(1R,2S)-1-(2-fluoro-cyclopropyl)-8-methoxy-4-oxo-1,4-dihydro-quinoline-3-carboxylic acid] | ≤ 0.015 | 0.03 (≈ 0.0661 µM) | 0.03 (≈ 0.0661 µM) | 0.25 (≈ 0.551 µM) | 0.12 (≈ 0.264 µM)
2 | COc1c(N2CCC/C(=C/CN)C2)c(F)cc2c(=O)c(C(=O)O)cn([C@@H]3C[C@@H]3F)c12 [Compound 408, (Z)-7-[3-(2-Amino-ethylidene)-piperidin-1-yl]-6-fluoro-(1R,2S)-1-(2-fluoro-cyclopropyl)-8-methoxy-4-oxo-1,4-dihydro-quinoline-3-carboxylic acid] | 0.03 (≈ 0.0715 µM) | 0.25 (≈ 0.596 µM) | 1 (≈ 2.38 µM) | 2 (≈ 4.77 µM) | 2 (≈ 4.77 µM)
3 | COc1c(N2CCC/C(=C\CN)C2)c(F)cc2c(=O)c(C(=O)O)cn([C@@H]3C[C@@H]3F)c12 [Compound 409, (E)-7-[3-(2-Amino-ethylidene)-piperidin-1-yl]-6-fluoro-(1R,2S)-1-(2-fluoro-cyclopropyl)-8-methoxy-4-oxo-1,4-dihydro-quinoline-3-carboxylic acid] | 0.12 (≈ 0.286 µM) | 1 (≈ 2.38 µM) | – | > 16 | > 16
4 | COc1c(N2CCC/C(=C(\C)CN)C2)c(F)cc2c(=O)c(C(=O)O)cn([C@@H]3C[C@@H]3F)c12 [Compound 410, (Z)-7-[3-(2-Amino-1-methyl-ethylidene)-piperidin-1-yl]-6-fluoro-(1R,2S)-1-(2-fluoro-cyclopropyl)-8-methoxy-4-oxo-1,4-dihydro-quinoline-3-carboxylic acid] | ≤ 0.015 | 0.06 (≈ 0.138 µM) | – | 0.5 (≈ 1.15 µM) | 1 (≈ 2.31 µM)
5 | NC/C(F)=C1\CCCN(c2c(F)cc3c(=O)c(C(=O)O)cn(-c4nc(N)c(F)cc4F)c3c2Cl)C1 [Compound 411, (Z)-1-(6-Amino-3,5-difluoro-pyridin-2-yl)-7-[3-(2-amino-1-fluoro-ethylidene)-piperidin-1-yl]-8-chloro-6-fluoro-4-oxo-1,4-dihydro-quinoline-3-carboxylic acid] | 0.06 (≈ 0.117 µM) | 1 (≈ 1.95 µM) | > 16 | > 16 | 16 (≈ 31.3 µM)
6 | NC/C(Cl)=C1/CCCN(c2c(F)cc3c(=O)c(C(=O)O)cn(-c4nc(N)c(F)cc4F)c3c2Cl)C1 [Compound 412, (E)-1-(6-Amino-3,5-difluoro-pyridin-2-yl)-7-[3-(2-amino-1-chloro-ethylidene)-piperidin-1-yl]8-chloro-6-fluoro-4-oxo-1,4-dihydro-quinoline-3-carboxylic acid] | 0.12 (≈ 0.227 µM) | 1 (≈ 1.89 µM) | 16 (≈ 30.3 µM) | > 16 | 8 (≈ 15.1 µM)
7 | NC/C=C1/CCCN(c2c(F)cc3c(=O)c(C(=O)O)cn(-c4nc(N)c(F)cc4F)c3c2Cl)C1 [Compound 413, (Z)-1-(6-Amino-3,5-difluoro-pyridin-2-yl)-7-[3-(2-amino-ethylidene)-piperidin-1-yl]8-chloro-6-fluoro-4-oxo-1,4-dihydro-quinoline-3-carboxylic acid] | 0.25 (≈ 0.506 µM) | 2 (≈ 4.05 µM) | 16 (≈ 32.4 µM) | > 16 | > 16
8 | NC/C=C1\CCCN(c2c(F)cc3c(=O)c(C(=O)O)cn(-c4nc(N)c(F)cc4F)c3c2Cl)C1 [Compound 414, (E)-1-(6-Amino-3,5-difluoro-pyridin-2-yl)-7-[3-(2-amino-ethylidene)-piperidin-1-yl]8-chloro-6-fluoro-4-oxo-1,4-dihydro-quinoline-3-carboxylic acid] | 0.25 (≈ 0.506 µM) | 2 (≈ 4.05 µM) | – | > 16 | > 16
9 | Nc1nc(-n2cc(C(=O)O)c(=O)c3cc(F)c(N4CCC/C(=C(\F)CO)C4)c(Cl)c32)c(F)cc1F [Compound 415, (E)-1-(6-Amino-3,5-difluoro-pyridin-2-yl)-8-chloro-6-fluoro-7-[3-(1-fluoro-2-hydroxy-ethylidene)-piperidin-1-yl]-4-oxo-1,4-dihydro-quinoline-3-carboxylic acid] | 0.12 (≈ 0.234 µM) | 4 (≈ 7.8 µM) | – | > 16 | > 16
10 | Nc1nc(-n2cc(C(=O)O)c(=O)c3cc(F)c(N4CCC/C(=C(/Cl)CO)C4)c(Cl)c32)c(F)cc1F [Compound 416, (Z)-1-(6-Amino-3,5-difluoro-pyridin-2-yl)-8-chloro-7-[3-(1-chloro-2-hydroxy-ethylidene)-piperidin-1-yl]-6-fluoro-4-oxo-1,4-dihydro-quinoline-3-carboxylic acid] | 0.06 (≈ 0.113 µM) | 1 (≈ 1.89 µM) | 16 (≈ 30.2 µM) | > 16 | 16 (≈ 30.2 µM)
11 | Nc1nc(-n2cc(C(=O)O)c(=O)c3cc(F)c(N4CCC(=C(F)CO)CC4)c(Cl)c32)c(F)cc1F [Compound 417, 1-(6-Amino-3,5-difluoro-pyridin-2-yl)-8-chloro-6-fluoro-7-[4-(1-fluoro-2-hydroxy-ethylidene)-piperidin-1-yl]-4-oxo-1,4-dihydro-quinoline-3-carboxylic acid] | 0.03 (≈ 0.0585 µM) | 0.5 (≈ 0.975 µM) | 8 (≈ 15.6 µM) | > 16 | 4 (≈ 7.8 µM)
12 | CNCC(F)=C1CN(c2c(F)cc3c(=O)c(C(=O)O)cn(-c4nc(N)c(F)cc4F)c3c2Cl)C1 [Compound 418, 1-(6-Amino-3,5-difluoro-pyridin-2-yl)-8-chloro-6-fluoro-7-[3-(1-fluoro-2-methylamino-ethylidene)-azetidin-1-yl]-4-oxo-1,4-dihydro-quinoline-3-carboxylic acid] | 0.06 (≈ 0.121 µM) | 1 (≈ 2.01 µM) | 16 (≈ 32.1 µM) | > 16 | 16 (≈ 32.1 µM)
13 | Nc1nc(-n2cc(C(=O)O)c(=O)c3cc(F)c(N4CC(=C(F)CO)C4)c(Cl)c32)c(F)cc1F [Compound 419, 1-(6-Amino-3,5-difluoro-pyridin-2-yl)-8-chloro-6-fluoro-7-[3-(1-fluoro-2-hydroxy-ethylidene)-azetidin-1-yl]-4-oxo-1,4-dihydro-quinoline-3-carboxylic acid] | ≤ 0.015 | ≤ 0.015 | 0.03 (≈ 0.0619 µM) | 0.25 (≈ 0.516 µM) | 0.06 (≈ 0.124 µM)
14 | NCC=C1CN(c2c(F)cc3c(=O)c(C(=O)O)cn(-c4nc(N)c(F)cc4F)c3c2Cl)C1 [Compound 420, 1-(6-Amino-3,5-difluoro-pyridin-2-yl)-7-[3-(2-amino-ethylidene)-azetidin-1-yl]-8-chloro-6-fluoro-4-oxo-1,4-dihydro-quinoline-3-carboxylic acid] | ≤ 0.015 | 0.12 (≈ 0.258 µM) | – | 1 (≈ 2.15 µM) | 0.5 (≈ 1.07 µM)
15 | CC(CN)=C1CN(c2c(F)cc3c(=O)c(C(=O)O)cn(-c4nc(N)c(F)cc4F)c3c2Cl)C1 [Compound 421, 1-(6-Amino-3,5-difluoro-pyridin-2-yl)-7-[3-(2-amino-1-methyl-ethylidene)-azetidin-1-yl]-8-chloro-6-fluoro-4-oxo-1,4-dihydro-quinoline-3-carboxylic acid] | 0.06 (≈ 0.125 µM) | 0.25 (≈ 0.521 µM) | – | 2 (≈ 4.17 µM) | 1 (≈ 2.08 µM)
16 | C/C(CN)=C1\CCCN(c2c(F)cc3c(=O)c(C(=O)O)cn(-c4nc(N)c(F)cc4F)c3c2Cl)C1 [Compound 422, (Z)-1-(6-Amino-3,5-difluoro-pyridin-2-yl)-7-[3-(2-amino-1-methyl-ethylidene)-piperidin-1-yl]-8-chloro-6-fluoro-4-oxo-1,4-dihydro-quinoline-3-carboxylic acid] | 0.12 (≈ 0.236 µM) | 1 (≈ 1.97 µM) | > 16 | > 16 | > 16
17 | C/C(CN)=C1/CCCN(c2c(F)cc3c(=O)c(C(=O)O)cn(-c4nc(N)c(F)cc4F)c3c2Cl)C1 [Compound 423, (E)-1-(6-Amino-3,5-difluoro-pyridin-2-yl)-7-[3-(2-amino-1-methyl-ethylidene)-piperidin-1-yl]-8-chloro-6-fluoro-4-oxo-1,4-dihydro-quinoline-3-carboxylic acid] | 0.25 (≈ 0.492 µM) | 4 (≈ 7.88 µM) | > 16 | > 16 | > 16
18 | Cc1c(F)c(N2CCC/C(=C(\F)CN)C2)cc2c1c(=O)c(C(=O)O)cn2C1CC1 [Compound 424, (E)-7-[3-(2-Amino-1-fluoro-ethylidene)-piperidin-1-yl]-1-cyclopropyl-6-fluoro-5-methyl-4-oxo-1,4-dihydro-quinoline-3-carboxylic acid] | ≤ 0.015 | ≤ 1 | 0.06 (≈ 0.149 µM) | 0.5 (≈ 1.24 µM) | ≤ 1
19 | Cc1c(F)c(N2CCC/C(=C(/F)CN)C2)cc2c1c(=O)c(C(=O)O)cn2C1CC1 [Compound 425, (Z)-7-[3-(2-Amino-1-fluoro-ethylidene)-piperidin-1-yl]-1-cyclopropyl-6-fluoro-5-methyl-4-oxo-1,4-dihydro-quinoline-3-carboxylic acid] | 0.06 (≈ 0.149 µM) | 1 (≈ 2.48 µM) | 4 (≈ 9.92 µM) | 16 (≈ 39.7 µM) | 8 (≈ 19.8 µM)
20 | Cc1c(F)c(N2CCC/C(=C(\Cl)CN)C2)cc2c1c(=O)c(C(=O)O)cn2C1CC1 [Compound 426, (E)-7-[3-(2-Amino-1-chloro-ethylidene)-piperidin-1-yl]-1-cyclopropyl-6-fluoro-5-methyl-4-oxo-1,4-dihydro-quinoline-3-carboxylic acid] | ≤ 0.015 | 0.06 (≈ 0.143 µM) | ≤ 0.5 | 1 (≈ 2.38 µM) | 0.25 (≈ 0.595 µM)
21 | Cc1c(F)c(N2CCC/C(=C/CN)C2)cc2c1c(=O)c(C(=O)O)cn2C1CC1 [Compound 427, (Z)-7-[3-(2-Amino-ethylidene)-piperidin-1-yl]-1-cyclopropyl-6-fluoro-5-methyl-4-oxo-1,4-dihydro-quinoline-3-carboxylic acid] | ≤ 0.015 | 0.12 (≈ 0.311 µM) | 2 (≈ 5.19 µM) | 4 (≈ 10.4 µM) | 1 (≈ 2.59 µM)
